For the series the following is noted: pH 6.

Consider `NC(=O)c1cccnc1` [Nicotinamide], for which the “Effect on SNAC solubility” value is listed as “concentration dependent effect”.
